Our source for the inhibition, IC50 and Ratio IC50 values is ChEMBL document CHEMBL4602613, “Early identification of promiscuous attributes of aldose reductase inhibitors using a DMSO-perturbation assay” (Bioorg Med Chem Lett, 2020).

Assay [1] addresses T1, Aldo-keto reductase family 1 member B1 (Homo sapiens, UniProt P15121). Nature of the assay: Inhibition of human recombinant AKR1B1 assessed as D,L-glyceraldehyde reduction at 100 uM incubated in sodium phosphate buffer at pH 6.2 in presence of NADPH relative to control.
Assay [2] addresses T1, Aldo-keto reductase family 1 member B1. As to the kind of experiment: Aggregation-based inhibition of human recombinant AKR1B1 assessed as D,L-glyceraldehyde reduction incubated in sodium phosphate buffer at pH 6.2 in presence of NADPH and 0.05% Triton X-100 by detergent-addition assay.
For assay [3] the target is unchanged. As to the kind of experiment: Inhibition of human recombinant AKR1B1 assessed as D,L-glyceraldehyde reduction incubated in sodium phosphate buffer at pH 6.2 in presence of NADPH.
Assay [4] has the same target. As to the kind of experiment: Aggregation-based inhibition of human recombinant AKR1B1 assessed as D,L-glyceraldehyde reduction at 300 uM incubated in sodium phosphate buffer at pH 6.2 in presence of NADPH and 0.05% Triton X-100 by detergent-addition assay.
For assay [5] the target is unchanged. Nature of the assay: Inhibition of human recombinant AKR1B1 assessed as D,L-glyceraldehyde reduction pretreated with 0.7M DMSO followed by compound addition by DMSO-perturbation assay.
The target is the same in assay [6]. As to the kind of experiment: Inhibition of human recombinant AKR1B1 assessed as D,L-glyceraldehyde reduction pretreated with 0.3M DMSO followed by compound addition by DMSO-perturbation assay.
Assay [7] has the same target. Nature of the assay: Ratio of IC50 for human recombinant AKR1B1 in presence of 0.7M DMSO to IC50 for human recombinant AKR1B1 in presence of 0.3M DMSO by DMSO-perturbation assay.
Assay [8] has as its target T2, Aldo-keto reductase family 1 member B10 (Homo sapiens, UniProt O60218). Nature of the assay: Inhibition of AKR1B10 (unknown origin) pretreated with 0.25M DMSO followed by compound treatment by DMSO-perturbation assay.
Assay [9] deals with T2, Aldo-keto reductase family 1 member B10. As to the kind of experiment: Inhibition of AKR1B10 (unknown origin) pretreated with 0.42M DMSO followed by compound treatment by DMSO-perturbation assay.

T2 sequence (O60218 whole entry): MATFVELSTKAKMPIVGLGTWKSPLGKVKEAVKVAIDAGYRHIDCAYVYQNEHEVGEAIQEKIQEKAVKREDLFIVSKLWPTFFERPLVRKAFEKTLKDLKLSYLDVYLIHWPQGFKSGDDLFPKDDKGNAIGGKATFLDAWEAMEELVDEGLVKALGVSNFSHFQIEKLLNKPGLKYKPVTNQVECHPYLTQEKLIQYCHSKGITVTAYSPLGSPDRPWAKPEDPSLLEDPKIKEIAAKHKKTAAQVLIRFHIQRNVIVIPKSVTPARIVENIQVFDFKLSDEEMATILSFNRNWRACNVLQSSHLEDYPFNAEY

For `CC1(CCc2ccccc2)NC(=O)NC1=O` (stereo not given), the inhibition – broadly, the change of the read-out against control, counted positive when it falls – in [1] came to 39%. Besides, the figures for the concentration for half-maximal inhibition (IC50) in assay [2] and in assay [3] (read-out: IC50) were 319 µM and 160 µM, respectively.
Turning to `CC(=O)CC[C@@H]1[C@H]2CC(=C(C)C)C(=O)C[C@@]12C`, in assay [1], the inhibition was found to be 3%.
Same read-out and setting: as for `CCCC1NC(=O)NC1=O` (stereo not given), the figure is 19%.
On the same count and under the same terms, as for `O=C1NC(=O)C(c2ccccc2)N1` (stereo not given), the figure is 34%.
With `CCCCCCCCC[C@H](O)CC(=O)CCc1ccc(O)c(OC)c1`, the figures for the inhibition in [1] and in assay [4] were 45% and less than 50%, respectively. For the same compound, the half-maximal inhibitory concentration (IC50) (as a rule, the concentration that gives 50% inhibition) in [3] (read-out: IC50) was 126 µM.
As to `COc1ccc(C(C)=O)c(O)c1`, in assay [1], the inhibition stood at 2%.
As to `O=C1NC(=O)C(c2ccccc2)(c2ccc(O)cc2)N1` (stereo not given), the inhibition in assay [1] worked out at 71%. The half-inhibitory concentration (IC50) came out at 64.2 µM in [5], 40.6 µM in assay [6], 47.9 µM in assay [2] and 40.6 µM in assay [3] (read-out: IC50).
Consider `CC(C)=C1C[C@@H]2[C@@H](CCC3(C)NC(=O)NC3=O)[C@]2(C)CC1=O` (stereo not given in full), for which, in assay [1], the inhibition worked out at 30%. For the same compound, the 50% inhibitory concentration (IC50) came out at 453 µM in [2] and 291 µM in assay [3] (read-out: IC50).
For `O=C1NC(=O)C2(CCCc3ccccc32)N1` (stereo not given) the same measures were 56%, 114 µM and 80.1 µM.
On to `Cn1cnc2c1c(=O)n(CCCCC1(C)NC(=O)NC1=O)c(=O)n2C` (stereo not given), for which the inhibition in [1] was found to be 56%. Also, the IC50 is 178 µM in assay [5], 65.6 µM in assay [6], 71.9 µM in assay [2] and 65.6 µM in [3] (read-out: IC50). For the same compound, the Ratio IC50 in assay [7] was 2.7.
In the case of `COc1ccc2c(c1)OC(=O)NC2(C)C(N)=O` (stereo not given), the inhibition in assay [1] came out at 12%.
As for `CCCCC[C@H](O)CC(=O)CCc1ccc(O)c(OC)c1` [GINGEROL], the inhibition in assay [1] stood at 4%. Further, in assay [3], the IC50 result was “Not Active”.
As to `COc1ccc(C2(C)NC(=O)NC2=O)c(O)c1` (stereo not given), the inhibition in [1] came out at 31%. The IC50 in assay [2] amounted to 433 µM; in assay [3] (read-out: IC50), 295 µM.
For `CC(/C=C1\SC(=S)N(CC(=O)O)C1=O)=C\c1ccccc1`, the IC50 in [8] was determined as 0.0352 µM; in assay [9], 0.0393 µM.
